The subject of this test is CCL2. Kind of test: ELISA of CCL2 levels in the supernatant of keratinocyte cultures treated with EGFR inhibitor PD168393 and/or HDAC inhibitors. The test is classed as cell-based. Particulars: then PD168393 24 hours (FIG. 1). From the text: Results are expressed as the mean of three independent experiments ±SD.

Regarding `CCCC(CCC)C(=O)O` [valproic acid], the “effect on PD168393-induced up-regulation of CCL2 levels” value (keratinocytes pre-treated with HDAC inhibitor for 2 hours) is reported as “suppressed”. Take `CC(/C=C/C(=O)NO)=C\[C@@H](C)C(=O)c1ccc(N(C)C)cc1` [trichostatin A]: the “effect on PD168393-induced up-regulation of CCL2 levels” value (keratinocytes pre-treated with HDAC inhibitor 5 nM for 2 hours) was “suppressed”.

(Values after US20120114745A1, “METHOD FOR TREATING OR AMELIORATING MUCOCUTANEOUS OR OCULAR TOXICITIES” (priority 2009, published 2012).)
